{"source": "patent US6872523B1", "about": "“Materials and methods for molecular detection of clinically relevant pathogenic fungal species” (The Board of Regents of the University of Nebraska, priority 2000, dated 2005)", "origin": "cited, not measured here", "key": {"[1]": {"test_system": "A. niger", "conditions": "low end of the reported MIC range"}, "[2]": {"test_system": "A. fumigatus", "conditions": "low end of the reported MIC range"}, "[3]": {"test_system": "A. flavus", "conditions": "high end of the reported MIC range"}, "[4]": {"test_system": "A. nidulans", "conditions": "high end of the reported MIC range"}, "[5]": {"test_system": "A. terreus isolates", "conditions": "share of A. terreus isolates resistant to AmB (refs 10, 17, 22)"}}, "data": [{"smiles": "C[C@@H]1[C@H](O)[C@@H](C)/C=C/C=C/C=C/C=C/C=C/C=C/C=C/[C@H](O[C@@H]2O[C@H](C)[C@@H](O)[C@H](N)[C@@H]2O)C[C@@H]2O[C@](O)(C[C@@H](O)C[C@@H](O)[C@H](O)CC[C@@H](O)C[C@@H](O)CC(=O)O[C@H]1C)C[C@H](O)[C@H]2C(=O)O", "note": "[AmB, amphotericin B]", "values": [{"measurement": "AmB MIC", "setting": "[1]", "value": 0.5, "unit": "mg/L"}, {"measurement": "AmB MIC", "setting": "[2]", "value": 0.5, "unit": "mg/L"}, {"measurement": "AmB MIC", "setting": "[3]", "value": 16, "unit": "mg/L"}, {"measurement": "AmB MIC", "setting": "[4]", "value": 16, "unit": "mg/L"}, {"measurement": "isolates reported as resistant", "setting": "[5]", "value": "over 95%"}]}]}
